One assay deals with AMPK. As to the kind of experiment: Western blot of ACC phosphorylation by AMPK in myotubes (FIG. 3F). The assay is classed as cell-based. As for the experimental part: (§1) After wash with cold DPBS buffer, cells were lysed in RIPA buffer that contained 50 mM Tris-HCl pH 8.0, 150 mM NaCl, 1 mM EDTA, 1 mM EGTA, 1% NP-40, 0.5% sodium deoxycholate, 0.1% SDS, and protease and phosphatase inhibitor cocktails (Roche). Total protein concentrations were measured using a BCA assay (Thermo scientific). Cell lysate (about 80 μg protein) was resolved by SDS-PAGE and blotted onto PVDF membranes. The membranes were probed overnight at 4° C. with appropriate primary antibodies (Cell Signaling Technology) and incubated with secondary fluorescent antibodies (LI-COR Biosciences) for 1 hr at room temperature before imaging by an Odyssey CLx system.
In general terms: In western blotting, separated proteins are transferred to a membrane and probed.

In assay [1] the target is T1, PI5P4Kα (Homo sapiens, UniProt P48426).
T1 sequence (P48426 1-406): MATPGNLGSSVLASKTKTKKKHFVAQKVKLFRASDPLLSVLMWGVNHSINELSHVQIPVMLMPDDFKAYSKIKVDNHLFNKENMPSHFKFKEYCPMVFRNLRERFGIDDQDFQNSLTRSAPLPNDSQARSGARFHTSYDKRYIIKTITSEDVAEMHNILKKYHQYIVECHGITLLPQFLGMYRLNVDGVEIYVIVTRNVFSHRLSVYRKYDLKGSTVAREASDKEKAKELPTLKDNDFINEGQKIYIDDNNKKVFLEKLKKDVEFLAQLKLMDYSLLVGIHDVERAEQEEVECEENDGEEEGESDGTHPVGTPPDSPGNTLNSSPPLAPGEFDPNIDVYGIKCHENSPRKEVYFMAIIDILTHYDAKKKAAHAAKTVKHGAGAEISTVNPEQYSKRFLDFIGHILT
As to the kind of experiment: PI5P4Kα kinase assay, 32P-labelled PI(4,5)P2 product resolved by TLC.
Experimental: (§2) Within each well, 10 μl final reaction mixture contains 100 μM PI(5)P, 2 μg/ml PI5P4Kα, 10 μM ATP (in FIG. 1B, ATP concentration varied from 10 μM to 100 μM), 10 mM MgCl2, 0.1% CHAPS and 20 mM HEPES pH 7.3. […] Kinase assay based on PI(4,5)P2 (product) detection was carried out in a 50 μl assay mixture containing 40 μM PI(5)P, 0.4 μg/ml PI5P4Kα, 20 μM ATP (unless otherwise stated), 10 mM MgCl2, 20 mM HEPES pH 7.3, and 10 mCi [γ-^32P]-ATP for 1 h at RT. […] The reaction was terminated by 5 μl 12N HCl. After termination, 175 μl PBS buffer and 380 μl methanol/chloroform mix (1:1, v/v) containing 10 μg/ml bovine brain extract (type I; Folch Fraction I; Sigma Aldrich) were added. The lower organic phase, containing the extracted lipids, was collected and dried under vacuum. The dried lipids were re-suspended in 25 μl methanol/chloroform mix (2:1, v/v), and separated by thin-layer chromatography (TLC). For TLC, heat activated 1% potassium oxalate-coated silica gel 60 plates were used (20 cm×20 cm, Merck), and the running solvent contained water, acetic acid, methanol, acetone, and chloroform (3:32:24:30:64 mix by volume). Radiolabeled lipid product was quantified with a phosphor imager (Bio-Rad Molecular Imager FX). […] The inhibitor was usually incubated with the enzyme at RT for 20 min before the reaction was initiated.

The target of another assay is T2, PI5P4Kβ (Homo sapiens, UniProt P78356).
T2 sequence (P78356 1-416): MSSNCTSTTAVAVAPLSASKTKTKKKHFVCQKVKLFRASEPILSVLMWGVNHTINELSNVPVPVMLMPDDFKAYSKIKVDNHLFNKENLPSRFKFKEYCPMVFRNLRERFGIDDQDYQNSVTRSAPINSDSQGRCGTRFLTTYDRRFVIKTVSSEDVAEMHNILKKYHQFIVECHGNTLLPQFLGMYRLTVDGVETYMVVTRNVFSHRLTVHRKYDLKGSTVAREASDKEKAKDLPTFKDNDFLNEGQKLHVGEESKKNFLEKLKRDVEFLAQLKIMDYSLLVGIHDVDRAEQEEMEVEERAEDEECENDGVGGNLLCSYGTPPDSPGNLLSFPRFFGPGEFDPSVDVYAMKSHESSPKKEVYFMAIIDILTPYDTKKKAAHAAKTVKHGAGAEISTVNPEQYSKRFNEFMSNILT
Put plainly: PI5P4Kβ kinase assay, 32P-labelled PI(4,5)P2 product resolved by TLC.

Assay [2] concerns the target T1, PI5P4Kα. As to the kind of experiment: PI5P4Kα in vitro kinase assay based on ADP detection (ADP-Glo), kinetic studies. The assay is classed as biochemical. The arrangement: made in house. In general terms: In ADP-Glo the light output rises with the ADP produced.
Experimental: Lipid vesicles [2:1 mixture of DPPS and PI(5)P] were prepared by sonication and extrusion in a buffer containing 0.1% CHAPS, 20 mM HEPES pH 7.3, 200 mM NaCl, 20 mM MgCl2, aliquoted, and stored at −80° C. Immediately before assay, thawed lipid suspension was sonicated and extruded again, and mixed with PI5P4Kα freshly purified in the same buffer. […] 20 nl of library compound (10 mM DMSO solution) was transferred to the well by an Aquarius system (Tecan). The plates were shaken for 30 s. 1 μl ATP solution was then added to initiate the reaction (final concentrations: PI(5)P 100 μM; lipid kinase 2 μg/ml; ATP 40 μM; library compound 20 μM). After incubating at RT in the dark for 1 h, 5 μl ADP-Glom reagent (Promega) was added to stop the reaction. After 40 min further incubation, 10 μl Kinase Detection reagent (Promega) was added. After 30 min, the luminescence was measured with an EnVision Multimode Plate Reader.
In vitro kinase assay based on ADP (product) detection was performed similarly in a white solid-bottom 96-well plate (Corning 3600). Within each well, 10 μl final reaction mixture contains 100 μM PI(5)P, 2 μg/ml PI5P4Kα, 10 μM ATP (in FIG. 1B, ATP concentration varied from 10 μM to 100 μM), 10 mM MgCl2, 0.1% CHAPS and 20 mM HEPES pH 7.3. After reaction, 10 μl ADP-Glo™ reagent and 20 μl Kinase Detection reagent were used for luminescence reading. […]
Assay [3] has as its target T1, PI5P4Kα. Put plainly: Competitive fluorescent binding assay with TNP-ATP. The arrangement: made in house. To be noted: displacement of 10 μM TNP-ATP from 6.8 μM PI5P4Kα.
Another assay concerns C2Cl2 myotubes. As to the kind of experiment: Immunoblot analysis of signaling in C2Cl2 myotubes. In kind it is cell-based, mouse. To be noted: FIG. 3E. How it is done:
BT-474 and MCF7 breast cancer cells, C2Cl2 mouse myoblast cells, and HEK 293T cells were maintained in high-glucose DMEM medium containing 10% FBS. L6 rat myoblast cells were maintained in α-MEM medium containing 10% FBS. For differentiation into myotubes, C2Cl2 cells were kept in DMEM medium containing 2% horse serum for 5 days, and L6 cells were kept in α-MEM medium containing 2% FBS for 7 days. Amino-acid-free DMEM medium was prepared using powder from USBio, and MEM amino acids solution was from Gibco. Media were all supplemented with 100 U/ml penicillin/streptomycin. Cell lines were purchased from ATCC.
as §1

In the next assay the test system is L6 myotubes. Put plainly: 2-deoxyglucose uptake. The assay is classed as cell-based, rat. To be noted: overnight treatment with 20 μM 7a or 1 mM metformin. How it is done: To measure 2-deoxyglucose (2-DG) uptake, L6 myotubes were treated with compound or DMSO control overnight in the absence of serum in α-MEM. Following treatment, cells were washed twice with KRH buffer (50 mM HEPES pH 7.4, 137 mM NaCl, 4.7 mM KCl, 1.85 mM CaCl2, 1.3 mM MgSO4) containing 0.1% BSA. Residual wash buffer was removed by aspiration. Cells were then incubated for 10 min at 37° C. in a KRH buffer containing 0.1% BSA, 5 mM unlabeled 2-DG and 2 μCi/ml [1,2-^3H(N)]-2-deoxy-D-glucose (PerkinElmer). The uptake was terminated by washing four times with ice-cold KRH buffer containing 0.1% BSA. Nonspecific 2-DG uptake into cells was determined in the presence of 10 μM cytochalasin B, which inhibits glucose transporters, and subtracted. The cells were lysed with 0.05 M NaOH for 2 hrs at 37° C. 10 μl cell lysate was used to quantify protein concentration by BCA assay. The remaining sample was transferred to a scintillation vial containing 3 ml Opti-Fluor liquid scintillation cocktail (PerkinElmer), and radioactivity was determined using a Beckman Coulter LS 6500 scintillation system and normalized against protein concentration.

Another assay concerns myotubes. Put plainly: Glucose consumption and lactate production in myotube culture media. The assay is classed as cell-based. As for the experimental part: To measure glucose consumption and lactate production, a total of 1×10^5 cells were seeded into each well of a 12-well plate and cultured in the presence of compound for 48 hrs. The culture media were collected and deproteinized by centrifugation using an Amicon Ultra centrifugal filter (3 kDa cut-off), while cells were lysed and used for protein concentration determination by BCA assay. The media were assayed immediately for glucose and lactate levels using colorimetric assay kits from BioVision following the manufacturer's protocols. The values were normalized against protein concentration. All measurements were made in triplicate.

Entries after “also recorded” stand apart in the source; their conditions may differ.

Experimental for PI5P4Kβ: as §2

As to `CN1C(=O)[C@@H](CC2CCCCC2)N(C2CCCC2)c2nc(Nc3cc(Cl)c(O)c(Cl)c3)ncc21` [7b, (R)-7-(cyclohexylmethyl)-8-cyclopentyl-2-((3,5-dichloro-4-hydroxyphenyl)amino)-5-methyl-7,8-dihydropteridin-6(5H)-one], the “ACC phosphorylation / AMPK activation” value with AMPK was “activated; also recorded: enhanced”. In addition, the “potency/affinity for PI5P4Kα in vitro” value on PI5P4Kα [1] is “weaken the affinity”. Also, at PI5P4Kβ, the “potency/affinity for PI5P4Kβ in vitro” value was “no effect”; the “selectivity between PI5P4Kα and PI5P4Kβ” value was “more specific for PI5P4Kβ; also recorded: more potent against PI5P4Kβ than PI5P4Kα”.
For the compound `CN1C(=O)[C@@H](Cc2ccccn2)N(C2CCCC2)c2nc(Nc3cc(Cl)c(O)c(Cl)c3)ncc21` [7e, (R)-8-cyclopentyl-2-((3,5-dichloro-4-hydroxyphenyl)amino)-7-(pyridine-2-ylmethyl)-5-methyl-7,8-dihydropteridin-6(5H)-one], the Ki at PI5P4Kα [1] and at PI5P4Kβ was 20 to 60 nM throughout.
In the case of `CN1C(=O)[C@@H](CC2CCCC2)N(C2CCCC2)c2nc(Nc3ccc4[nH]nnc4c3)ncc21` [7f, (R)-2-((1H-benzo[d][1,2,3]triazol-5-yl)amino)-8-cyclopentyl-7-(cyclopentylmethyl)-5-methyl-7,8-dihydropteridin-6(5H)-one], the inhibitory constant (Ki) – broadly, the equilibrium dissociation constant of an inhibitor or competing ligand from its target – at PI5P4Kα [1] fell in the range of 200 to 700 nM; on PI5P4Kβ, 80 to 230 nM.
With `CN1C(=O)[C@@H](CC2CCCC2)N(C2CCCC2)c2nc(Nc3ncc(C(=O)O)s3)ncc21` [7g, (R)-2-((8-cyclopentyl-7-(cyclopentylmethyl)-5-methyl-6-oxo-5,6,7,8-tetrahydropteridin-2-yl)amino)thiazole-5-carboxylic acid], the results for the Ki at PI5P4Kα [1] and on PI5P4Kβ were 30 to 90 nM and 100 to 280 nM, respectively.
Taken in the same sequence, the figures for `CN1C(=O)[C@@H](CC2CCCC2)N(C2CCCC2)c2nc(Nc3csc(C(=O)O)c3)ncc21` [7h, (R)-4-((8-cyclopentyl-7-(cyclopentylmethyl)-5-methyl-6-oxo-5,6,7,8-tetrahydropteridin-2-yl)amino)thiophene-2-carboxylic acid] were 110 to 220 nM and 80 to 160 nM.
Take `CN1C(=O)[C@@H](CC2CCCC2)N(C2CCCC2)c2nc(Nc3cc(F)c(C(=O)O)c(F)c3)ncc21` [7i, (R)-4-((8-cyclopentyl-7-(cyclopentylmethyl)-5-methyl-6-oxo-5,6,7,8-tetrahydropteridin-2-yl)amino)-2,6-difluorobenzoic acid]: the Ki on PI5P4Kα [1] fell in the range of 55 to 110 nM; on PI5P4Kβ it was 75 to 150 nM.
`CN1C(=O)[C@@H](Cc2ccccn2)N(C2CCCC2)c2nc(Nc3ncc(C(=O)O)s3)ncc21` [7j, (R)-2-((8-cyclopentyl-5-methyl-6-oxo-7-(pyridin-2-ylmethyl)-5,6,7,8-tetrahydropteridin-2-yl)amino)thiazole-5-carboxylic acid]: the Ki at PI5P4Kα [1] lay in the range of 50 to 100 nM; on PI5P4Kβ, 400 to 800 nM.
On to `CN1C(=O)[C@@H](Cc2ccccn2)N(C2CCCC2)c2nc(Nc3ccc4[nH]nnc4c3)ncc21` [7k, (R)-2-((1H-benzo[d][1,2,3]triazol-5-yl)amino)-8-cyclopentyl-5-methyl-7-(pyridin-2-ylmethyl)-7,8-dihydropteridin-6(5H)-one], for which the Ki on PI5P4Kβ was in the range of 100 to 200 nM.
As for `CC[C@@H]1C(=O)N(C)c2cnc(Nc3ccc(C(=O)NC4CCN(C)CC4)cc3OC)nc2N1C1CCCC1` [BI-2536], the “ACC phosphorylation / AMPK activation” value with AMPK is on record as “did not increase; also recorded: did not induce”.
Take `CC(C)CCN1c2nc(Nc3cc(F)c(O)c(F)c3)ncc2N(C)C(=O)C1C` (stereo not shown) [BI-D1870]: in the assay on AMPK, the “ACC phosphorylation / AMPK activation” value is listed as “did not increase; also recorded: did not induce”. Also, at PI5P4Kα [2] (competitive with ATP), the Ki was approximately 1000 nM. Besides, the Kd (in general, a measure of binding affinity in units of concentration) at PI5P4Kα [3] is approximately 1300 nM.
Consider `CS(=O)(=O)N1CCN(Cc2cc3nc(-c4cccc5[nH]ncc45)nc(N4CCOCC4)c3s2)CC1` [GDC-0941, reference compound], for which the “insulin-induced Akt phosphorylation at Ser-473” value with C2Cl2 myotubes is “eliminated”.
Turning to `C[C@@H]1COCCN1c1cc(=O)n2c(n1)N(Cc1cncc(Cl)c1)[C@H](C(F)(F)F)CC2` [SAR405, reference compound], in the assay with C2Cl2 myotubes, the “mTORC1 activation by amino acids” value was “prevented”.
As to `CN(C)C(=N)N=C(N)N` [metformin, reference compound], the “rate of glucose uptake (labeled 2-deoxyglucose)” value in the assay with L6 myotubes is “doubled”. For the same compound, in the assay on myotubes (48 hours), the “molar fraction of consumed glucose used for lactate fermentation” value is given as 41%. Further, in the assay with myotubes (48 hours after treatment), the “lactate accumulated in the media” value came out at 8.6 mM and the “reduction of glucose concentration in the media” value came to 10.6 mM.
`CC[C@@H]1C(=O)N(C)c2cnc(Nc3ccc(C(=O)N[C@H]4CC[C@H](N5CCN(CC6CC6)CC5)CC4)cc3OC)nc2N1C(C)C` [volasertib]: the “Kis for PI5P4Kα compared with BI-D1870” value at PI5P4Kα [2] (ATP 10 μM) is on record as “slightly higher”.

The values above are taken from patent US11773096B2, “Small-molecule PI5P4K alpha/beta inhibitors and methods of treatment using same” (YALE UNIVERSITY, priority 2018, dated 2023).
